# Assay results: doi:10.1101/2025.08.18.25333496, “A Phase 0 Window of Opportunity Trial of LB100, a Protein Phosphatase 2A Inhibitor, in Patients with Recurrent Gliomas” (medRxiv, 2025)
# Where two headings read alike, the source gives them in different places.
# How the values were obtained:
# [1] = in vivo
# Method: After LB100 infusion and craniotomy all patients were evaluated in person 1–3 days following surgery and followed for at least 30 days after infusion of LB100 for toxicities and adverse events (AEs). All adverse events, including clinically significant abnormal findings on laboratory evaluations, regardless of severity, were followed until return to baseline or stabilization of event. Adverse events were documented from the first study intervention (study day 1) through the final safety visit (study day 30). Beyond 30 days only adverse events which were serious and related to the study intervention were recorded. The descriptions and grading scales found in the revised NCI Common Terminology Criteria for Adverse Events (CTCAE) version 5.0 were utilized for AE reporting.
# During the first post-operative week after infusion with LB100, an EKG, renal function tests and liver function tests were performed. Two to three weeks following discharge from the hospital, all patients were given a physical exam and additional blood testing. At approximately 30 days post-craniotomy patients were questioned to determine whether any new AEs had occurred, and any ongoing AEs were followed up on. Prior to removal from the study, at approximately 30 days following drug infusion, all subjects completed a final safety evaluation.
# clinical [2] = assay: clinical; parameters: species or system human; settings: in vivo
# Method: Glioma tissue sampling to detect and quantify LB100 was performed post-dose in each patient, with resection time points from the end of the LB100 infusion recorded. After ensuring adequate diagnostic tissue, remaining tissue was used for PK analysis. Briefly, removed tissues were rinsed with saline immediately (to remove LB100-containing blood and avoid falsely elevated LB100 measurements), then divided, flash-frozen, and stored at −80°C for future batch analysis.
# This analysis was performed blinded to tumor type.
# [3] = molecular target: protein phosphatase 2A (PP2A); settings: cited from earlier work
# PP2A = test system: PP2A; parameters: method as in Lixte Biotechnology, Investigators Brochure, unpublished; settings: mice, brain region with intact BBB; ref Lixte Biotechnology, Investigators Brochure, unpublished; cited from earlier work
# [4] = parameters: method as in Lixte Biotechnology, Investigators Brochure, unpublished; settings: ref Lixte Biotechnology, Investigators Brochure, unpublished, cited from earlier work
# [5] = parameters: method as in PMID 28039265; settings: dose level above the established safe dose; cited from earlier work
# [6] = human, in vivo
# Method: (§1) In this current trial, a single dose of LB100 was infused over two hours (+/− 15 minutes) starting two to four hours before surgery.
# (§2) Blood and plasma samples for PK measurements were also performed on all participants. Samples were collected at the following time points: 1) Pre-dose; 2) End of infusion (2 hours post-start); 3) 30 minutes post LB100 infusion completion; 4) 1 hour post LB-100 infusion completion; 5) 2 hours post LB100 infusion completion; 6) 4 hours post LB100 infusion completion; 7) 8 hours post LB100 infusion completion.
# (§3) LB100 concentration in clinical PK samples (plasma and tumor tissue), was quantified using a validated and robust LC-MS/MS assay developed at the NCI that used LB-105 as an internal standard. This analysis was performed blinded to tumor type. Plasma samples were pre-treated with 50 mM NaOH and tissue samples were homogenized in acetonitrile at a concentration of 100 mg/mL Briefly, samples were mixed with aqueous 10 mM triethylamine (TEA) containing internal standard followed by protein precipitation with 0.5% TEA in acetonitrile. Samples were processed alongside calibration and quality control (QC) standards, ranging from 2–1000 ng/mL (~7.5–3700 nM) and 3–10,000 pg/mg (~1.2–3700 nM) for plasma and brain tissue, respectively. […] The analyte and internal standard were chromatographically separated using a Waters Acquity UPLC BEH C18 (1.7-μm, 2.1×50mm) on a Waters Acuity UPLC system (Waters Corp., Milford, MA). A gradient mobile phase consisting of 5 mM ammonium bicarbonate (aq) and acetronitrile was flowed at a rate of 0.5 to 1 mL/min; the injection volume was 5 uL. After chromatographic separation, the compounds were eluted and detected using a AbSciex QTrap 5500 tandem mass spectrometer in positive ion electrospray mode; MRM transitions were m/z 269.1 → 101.0 and 283.2 → 115.1 for LB-100 and LB-105, respectively.
# (§4) Plasma PK was analyzed via a non-compartmental approach using Phoenix WinNonlin v8.3 (Certara Corp, Cary, NC) that was validated per FDA 21CFR Part 11 Regulations. The maximum plasma concentration (Cmax) and the time of Cmax (Tmax) were reported as observed values. A rate constant of the terminal phase, λz, was calculated from the concentration-time curve using uniformly weighted least-squares as the estimation procedure and acceptance criteria of i) r^2 > 0, ii) includes >3-time points. […] Estimated pharmacokinetic parameters included half-life (t1/2; inverse of λz), volume of distribution (Vd; dose divided by product of λz and AUCINF), and clearance (CL; dose divided by AUCINF). Drug concentrations in brain tissue samples were reported and % brain penetrance was approximated via the ratio of brain tissue drug concentration to plasma drug concentrations from matched timepoints post-tissue collection.
# clinical [7] = settings: human, in vivo
# Method: as §1, §2, §3, §4
# [8] = one-time administration equivalent to human maximum tolerated dose
smiles,measurement,setting,value
CN1CCN(C(=O)C2C(C(=O)O)[C@H]3CC[C@@H]2O3)CC1 (some centres unmarked) [LB100],AEs related to LB100,"[1]; human, 30 days",No AEs were thought to be related to LB100
same,total number of AEs,"[1]; human, 30 days",30
same,AEs rated as serious (grade 3 or 4),[1],Four
same,% Brain Pen (ratio of brain:plasma concentrations),clinical [2]; human,0.31% (159%)
same,Kp,clinical [2]; human,0.0031
same,concentration at 5.68 h,clinical [2]; human,0.51 ng/g
same,"concentration of LB100 in tumor tissue, range",clinical [2]; human,0 to 0.67 nM
same,"percent of drug penetration into the brain, range",clinical [2]; human,0% to 1.04%
same,difference in drug levels between contrast and non-contrast regions of tumor,clinical [2],no significant difference in drug levels
same,IC50,"[3]; in glial cell lines, read-out: IC50 of PP2A",200 to 400 nM
same,IC50,"[3]; previously established, read-out: minimum IC50 targeting protein phosphatase 2A",200 nM
same,PP2A enzymatic activity in the lateral habenula,PP2A,significantly decrease PP2A enzymatic activity
same,mean Cmax in plasma,[4]; animal studies,1110~3664 ng/ml
same,mean Cmax in the brain,[4]; animal studies,17.4~43.5 ng/kg
same,animals with LB100 detected in implanted tumor,[4]; [8],1 of 3
same,animals with LB100 detected in normal brain and liver,[4]; [8],2 of 3
same,patients with grade 3 increases in creatinine clearance,[5],2 of 4
same,T1/2,[6],1.27 (13%) hr
same,"plasma concentration of LB100 at the time of biopsy, range",[6],30.81 to 132.26 nM
same,Vd,clinical [7],21.7 L
same,clearance,clinical [7],195 mL/min
same,AUC(0-inf),clinical [7]; AUCinf,414 ng·h/mL
same,Cmax,clinical [7],146 ng/mL
same,Cmax,clinical [7]; range,95 to 179 ng/mL
same,half-life,clinical [7]; T1/2,1.2 h
same,Tmax,clinical [7]; TMAX,2.1 h
same,Tmax,"clinical [7]; Tmax, range",2.07 to 2.63 h
same,AUC(0-inf),"clinical [7]; plasma drug exposure (AUCINF), range",325 to 468 ng·h/mL
same,half-life,"clinical [7]; plasma half-life (T1/2), range",1.09 to 1.46 h
